Test results taken from the Kinase Knowledgebase extract (Sharma et al. 2016).

Biological target: EGFR (human) (UniProt P00533)
Sequence (P00533 whole entry, looked up): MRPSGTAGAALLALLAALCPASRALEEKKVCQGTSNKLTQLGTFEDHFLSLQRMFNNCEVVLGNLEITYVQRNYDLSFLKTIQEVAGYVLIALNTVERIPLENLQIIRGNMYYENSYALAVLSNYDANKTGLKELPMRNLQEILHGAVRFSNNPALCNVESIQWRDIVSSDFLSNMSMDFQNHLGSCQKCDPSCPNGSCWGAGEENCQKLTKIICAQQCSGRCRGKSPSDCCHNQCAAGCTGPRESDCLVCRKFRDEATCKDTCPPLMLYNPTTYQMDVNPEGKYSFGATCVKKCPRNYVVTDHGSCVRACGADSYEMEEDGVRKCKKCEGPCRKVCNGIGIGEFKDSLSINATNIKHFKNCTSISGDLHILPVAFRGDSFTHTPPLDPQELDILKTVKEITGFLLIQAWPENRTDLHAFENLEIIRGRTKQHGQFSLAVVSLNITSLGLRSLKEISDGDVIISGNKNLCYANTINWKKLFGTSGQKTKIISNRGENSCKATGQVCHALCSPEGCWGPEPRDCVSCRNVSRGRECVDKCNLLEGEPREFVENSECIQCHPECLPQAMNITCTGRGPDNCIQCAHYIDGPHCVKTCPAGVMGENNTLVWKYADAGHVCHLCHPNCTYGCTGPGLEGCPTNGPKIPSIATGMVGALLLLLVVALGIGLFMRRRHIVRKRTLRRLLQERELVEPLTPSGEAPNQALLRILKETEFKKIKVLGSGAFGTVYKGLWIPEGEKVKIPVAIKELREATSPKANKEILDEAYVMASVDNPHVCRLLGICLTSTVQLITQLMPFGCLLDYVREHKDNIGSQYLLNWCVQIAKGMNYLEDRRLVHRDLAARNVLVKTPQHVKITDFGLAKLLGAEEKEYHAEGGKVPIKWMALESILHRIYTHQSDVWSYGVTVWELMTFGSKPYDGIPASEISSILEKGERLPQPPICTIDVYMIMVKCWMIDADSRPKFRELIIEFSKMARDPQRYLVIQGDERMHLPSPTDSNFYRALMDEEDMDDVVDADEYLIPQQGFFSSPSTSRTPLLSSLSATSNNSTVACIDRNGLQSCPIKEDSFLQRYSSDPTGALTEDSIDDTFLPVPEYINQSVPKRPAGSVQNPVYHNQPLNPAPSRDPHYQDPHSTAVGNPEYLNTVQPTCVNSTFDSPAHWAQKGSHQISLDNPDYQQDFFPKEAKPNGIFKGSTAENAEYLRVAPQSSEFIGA

IC50 [nM] | SMILES
< 100 | COc1cc(Nc2nccc(-c3sc(N)nc3-c3cccc(NC(=O)c4c(F)cccc4F)c3)n2)cc(OC)c1OC
< 100 | NS(=O)(=O)CCc1cccc(Nc2nccc(-c3scnc3-c3cccc(NC(=O)c4cc(F)ccc4F)c3)n2)c1
< 100 | COc1ccc(Nc2nccc(-c3scnc3-c3cccc(NC(=O)c4c(F)cccc4F)c3)n2)cc1N1CCN(C)CC1
< 100 | COc1ccc(Nc2nccc(-c3sc(N)nc3-c3cccc(NC(=O)c4c(F)cccc4F)c3)n2)cc1OCCN(C)C
< 100 | CN(C)CCCNc1ccc(Nc2nccc(-c3sc(N)nc3-c3cccc(NC(=O)c4cc(F)ccc4F)c3)n2)cc1F
< 100 | CNc1nc(-c2cccc(NC(=O)c3cc(F)ccc3F)c2)c(-c2ccnc(Nc3ccc(OC)c(F)c3)n2)s1
< 100 | Cc1nc(-c2cccc(NC(=O)c3c(F)cccc3F)c2)c(-c2ccnc(Nc3ccc(OCCN4CCCC4)c(Cl)c3)n2)s1
< 100 | Nc1nc(-c2cccc(NC(=O)c3cc(F)ccc3F)c2)c(-c2ccnc(Nc3cccc(-c4cnco4)c3)n2)s1
< 100 | CN(C)CCOc1cccc(Nc2nccc(-c3scnc3-c3cccc(NC(=O)c4c(F)cccc4F)c3)n2)c1
< 100 | Nc1nc(-c2cccc(NC(=O)c3c(F)cccc3F)c2)c(-c2ccnc(Nc3cccc(CCS(N)(=O)=O)c3)n2)s1
< 100 | Nc1nc(-c2cccc(NC(=O)c3c(F)cccc3F)c2)c(-c2ccnc(Nc3ccc4c(c3)CNCC4)n2)s1
< 100 | NS(=O)(=O)CCc1cccc(Nc2nccc(-c3scnc3-c3cccc(NC(=O)c4c(F)cccc4F)c3)n2)c1
< 100 | CN(C)CCOc1cccc(Nc2nccc(-c3sc(N4CCCCC4)nc3-c3cccc(NC(=O)c4c(F)cccc4F)c3)n2)c1
< 100 | CN(C)c1nc(-c2cccc(NC(=O)c3c(F)cccc3F)c2)c(-c2ccnc(Nc3ccc(OCCN4CCCC4)c(Cl)c3)n2)s1
< 100 | Nc1nc(-c2cccc(NC(=O)c3c(F)cccc3F)c2)c(-c2ccnc(Nc3cccc(F)c3)n2)s1
< 100 | Cc1nc(-c2cccc(NC(=O)c3cc(F)ccc3F)c2)c(-c2ccnc(Nc3ccc(OCCN(C)C)c(Cl)c3)n2)o1
< 100 | Cc1nc(-c2cccc(NC(=O)c3c(F)cccc3F)c2)c(-c2ccnc(Nc3cccc(CN4CCCC4)c3)n2)s1
< 100 | Cc1nc(-c2cccc(NC(=O)c3c(F)cccc3F)c2)c(-c2ccnc(Nc3ccc(OC4CCNCC4)c(F)c3)n2)s1
< 100 | CC(C)(C)c1nc(-c2cccc(NC(=O)c3c(F)cccc3F)c2)c(-c2ccnc(Nc3cccc(CN4CCCC4)c3)n2)s1
< 100 | CC(=O)Nc1nc(-c2cccc(NC(=O)c3c(F)cccc3F)c2)c(-c2ccnc(Nc3cccc(CN4CCCC4)c3)n2)s1
< 100 | COc1ccc(Nc2nccc(-c3sc(NCCN4CCOCC4)nc3-c3cccc(NC(=O)c4cc(F)ccc4F)c3)n2)cc1F
< 100 | Cc1nc(-c2cccc(NC(=O)c3cc(F)ccc3F)c2)c(-c2ccnc(Nc3ccc(OCCN(C)C)c(F)c3)n2)s1
< 100 | CC(C)(C)S(=O)(=O)Cc1nc(-c2cccc(NC(=O)c3c(F)cccc3F)c2)c(-c2ccnc(Nc3ccc(OCCN4CCCC4)c(Cl)c3)n2)s1
< 100 | CS(=O)(=O)CCN1CCN(c2ccc(Nc3nccc(-c4scnc4-c4cccc(NC(=O)c5c(F)cccc5F)c4)n3)cc2F)CC1
< 100 | Cc1nc(-c2cccc(NC(=O)c3cccc(C(F)(F)F)c3)c2)c(-c2ccnc(Nc3ccc4c(c3)CN(C)CC4)n2)s1
< 100 | O=C(Nc1cccc(-c2nc(NCCCN3CCOCC3)sc2-c2ccnc(Nc3cccc(F)c3)n2)c1)c1c(F)cccc1F

IC50 [nM] | SMILES
< 100 | Nc1nc(-c2cccc(NC(=O)Cc3cccs3)c2)c(-c2ccnc(Nc3cccc(F)c3)n2)s1
< 100 | O=C(Nc1cccc(-c2nc(NCCN3CCOCC3)sc2-c2ccnc(Nc3ccc4c(c3)CNCC4)n2)c1)c1c(F)cccc1F
< 100 | CCNc1nc(-c2cccc(NC(=O)C3CC3)c2)c(-c2ccnc(Nc3ccc(OCCN4CCCC4)c(Cl)c3)n2)s1
< 100 | CN(C)CCOc1ccc(Nc2nccc(-c3sc(N)nc3-c3cccc(OCc4ccccc4)c3)n2)cc1Cl
< 100 | COc1ccccc1C(=O)Nc1cccc(-c2nc(C)sc2-c2ccnc(Nc3ccc4c(c3)CN(C)CC4)n2)c1
< 100 | Nc1nc(-c2cccc(NC(=O)c3c(F)cccc3F)c2)c(-c2ccnc(Nc3cccc(-c4cnco4)c3)n2)s1
< 100 | COc1ccc(Nc2nccc(-c3sc(N)nc3-c3cccc(NC(=O)c4c(F)cccc4F)c3)n2)cc1F
< 100 | CN(C)CCOc1ccc(Nc2nccc(-c3sc(-c4ccc(O)cc4)nc3-c3cccc(NC(=O)c4c(F)cccc4F)c3)n2)cc1Cl
< 100 | CCc1nc(-c2cccc(NC(=O)c3c(F)cccc3F)c2)c(-c2ccnc(Nc3ccc(OCCN(C)C)c(Cl)c3)n2)s1
< 100 | COCCOc1ccc(Nc2nccc(-c3sc(N)nc3-c3cccc(NC(=O)c4cccn4C)c3)n2)cc1F
< 100 | Cc1nc(-c2cccc(NC(=O)c3c(F)cccc3F)c2)c(-c2ccnc(Nc3ccc(OC4CCN(C(C)C)CC4)c(F)c3)n2)s1
< 100 | CN1CCc2ccc(Nc3nccc(-c4sc(N5CCCC5)nc4-c4cccc(NC(=O)c5c(F)cccc5F)c4)n3)cc2C1
< 100 | CCN(CC)CCOc1cccc(Nc2nccc(-c3scnc3-c3cccc(NC(=O)Cc4cccs4)c3)n2)c1
< 100 | Nc1nc(-c2cccc(NC(=O)C3CCCCC3)c2)c(-c2ccnc(Nc3ccc4c(c3)CNCC4)n2)s1
< 100 | CN(C)CCOc1ccc(Nc2nccc(-c3sc(N4CCCCC4)nc3-c3cccc(NC(=O)c4c(F)cccc4F)c3)n2)cc1Cl
< 100 | CN(C)CCOc1cccc(Nc2nccc(-c3scnc3-c3cccc(NC(=O)c4cc(F)ccc4F)c3)n2)c1
< 100 | Cc1nc(-c2cccc(NC(=O)c3ccc(F)cc3)c2)c(-c2ccnc(Nc3ccc(OCCN(C)C)c(Cl)c3)n2)s1
< 100 | CCc1nc(-c2cccc(NC(=O)c3c(F)cccc3F)c2)c(-c2ccnc(Nc3ccc(OCCN4CCCC4)c(Cl)c3)n2)s1
< 100 | CCc1nc(-c2cccc(NC(=O)c3c(F)cccc3F)c2)c(-c2ccnc(Nc3ccc(OCCN(C)C)c(F)c3)n2)s1
< 100 | COc1ccc(Nc2nccc(-c3scnc3-c3cccc(NC(=O)Cc4cccs4)c3)n2)cc1OCCN(C)C
< 100 | CNc1nc(-c2cccc(NC(=O)c3c(F)cccc3F)c2)c(-c2ccnc(Nc3cccc(CN4CCCC4)c3)n2)s1
< 100 | Cc1cccc(C(=O)Nc2cccc(-c3nc(C)sc3-c3ccnc(Nc4ccc(OCCN(C)C)c(Cl)c4)n3)c2)c1
< 100 | CCN(CC)CCOc1cccc(Nc2nccc(-c3scnc3-c3cccc(NC(=O)c4c(F)cccc4F)c3)n2)c1
< 100 | Cc1nc(-c2cccc(NC(=O)c3c(F)cccc3F)c2)c(-c2ccnc(Nc3ccc(OC4CCN(C)CC4)c(F)c3)n2)s1
< 100 | CN1CCC(c2nc(-c3cccc(NC(=O)c4c(F)cccc4F)c3)c(-c3ccnc(Nc4ccc5c(c4)CN(C)CC5)n3)s2)CC1
< 100 | CC(=O)N1CCC(Oc2ccc(Nc3nccc(-c4sc(C)nc4-c4cccc(NC(=O)c5c(F)cccc5F)c4)n3)cc2F)CC1

IC50 [nM] | SMILES
< 100 | CN(C)c1nc(-c2cccc(NC(=O)c3c(F)cccc3F)c2)c(-c2ccnc(Nc3ccc(OCCN4CCCC4)nc3)n2)s1
< 100 | CN(C)CCOc1cccc(Nc2nccc(-c3scnc3-c3cccc(NC(=O)Cc4cccs4)c3)n2)c1
< 100 | CN1CCc2ccc(Nc3nccc(-c4sc(CS(=O)(=O)C(C)(C)C)nc4-c4cccc(NC(=O)c5c(F)cccc5F)c4)n3)cc2C1
< 100 | O=C(Nc1cccc(-c2nc(CO)sc2-c2ccnc(Nc3ccc(OCCN4CCCC4)c(F)c3)n2)c1)c1c(F)cccc1F
< 100 | CN(C)CCOc1cccc(Nc2nccc(-c3sc(N)nc3-c3cccc(C(=O)Nc4c(F)cccc4F)c3)n2)c1
< 100 | Cc1nc(-c2cccc(NC(=O)c3c(F)cccc3F)c2)c(-c2ccnc(Nc3cccc(F)c3)n2)s1
< 100 | CCN(CC)CCOc1cccc(Nc2nccc(-c3scnc3-c3cccc(NC(=O)c4cc(F)ccc4F)c3)n2)c1
< 100 | COCCOc1ccc(Nc2nccc(-c3sc(N)nc3-c3cccc(NC(=O)c4cc(F)ccc4F)c3)n2)cc1F
< 100 | CN1CCc2ccc(Nc3nccc(-c4sc(C5CCNCC5)nc4-c4cccc(NC(=O)c5c(F)cccc5F)c4)n3)cc2C1
< 100 | CN(C)CCOc1ccc(Nc2nccc(-c3sc(N(C)C)nc3-c3cccc(NC(=O)c4c(F)cccc4F)c3)n2)cc1
< 100 | CN(C)CCOc1cccc(Nc2nccc(-c3sc(N)nc3-c3cccc(NC(=O)c4c(F)cccc4F)c3)n2)c1
< 100 | CN(C)CCOc1ccc(Nc2nccc(-c3sc(N4CCN(C)CC4)nc3-c3cccc(NC(=O)c4c(F)cccc4F)c3)n2)cc1Cl
< 100 | CN(C)CCOc1ccc(Nc2nccc(-c3sc(N)nc3-c3cccc(NC(=O)c4c(F)cccc4F)c3)n2)cc1Cl
< 100 | CN(C)CCOc1ccc(Nc2nccc(-c3sc(-c4ccc(O)cc4)nc3-c3cccc(NC(=O)c4cc(F)ccc4F)c3)n2)cc1Cl
< 100 | CN(C)CCOc1ccc(Nc2nccc(-c3sc(NS(=O)(=O)CC(F)(F)F)nc3-c3cccc(NC(=O)c4c(F)cccc4F)c3)n2)cc1
< 100 | O=C(Nc1cccc(-c2ncsc2-c2ccnc(Nc3cccc(CN4CCCC4)c3)n2)c1)c1c(F)cccc1F
< 100 | COCCNc1nc(-c2cccc(NC(=O)c3cc(F)ccc3F)c2)c(-c2ccnc(Nc3ccc(OC)c(F)c3)n2)s1
< 100 | CN1CCN(c2nc(-c3cccc(NC(=O)c4c(F)cccc4F)c3)c(-c3ccnc(Nc4cccc(CN5CCCC5)c4)n3)s2)CC1
< 100 | Nc1nc(-c2cccc(NC(=O)c3cc(F)ccc3F)c2)c(-c2ccnc(Nc3ccc4c(c3)CNCC4)n2)s1
< 100 | Nc1nc(-c2cccc(NC(=O)c3c(F)cccc3F)c2)c(-c2ccnc(Nc3ccc4c(c3)NC(=O)CO4)n2)s1
< 100 | CCc1nc(-c2cccc(NC(=O)c3c(F)cccc3F)c2)c(-c2ccnc(Nc3ccc(N4CCC(N5CCCCC5)CC4)c(F)c3)n2)s1
< 100 | Cc1cc(-c2sc(N)nc2-c2cccc(NC(=O)c3c(F)cccc3F)c2)nc(Nc2cccc(OCCN(C)C)c2)n1
< 100 | CN1CCc2ccc(Nc3nccc(-c4sc(N(C)C)nc4-c4cccc(NC(=O)c5c(F)cccc5F)c4)n3)cc2C1
< 100 | O=C(Nc1cccc(-c2nc(NCCCN3CCOCC3)sc2-c2ccnc(Nc3cccc(CN4CCCC4)c3)n2)c1)c1c(F)cccc1F
